In US10117430B2, “Malononitrile compounds for controlling animal pests” (BASF SE, priority 2012, dated 2018):

Tests used:
Type in all cases: in vivo
[1] = system: Cowpea Aphid (Aphis craccivora); test: B.1 Cowpea aphid spray test on potted cowpea plants; settings: in comparison with untreated controls, population reduction assessed after 24, 72 and 120 hours
Experimental: B.1 Cowpea Aphid (Aphis craccivora)
The active compounds were formulated in 50:50 (v/v) acetone:water. The test solution was prepared at the day of use. Potted cowpea plants colonized with approximately 100-150 aphids of various stages were sprayed after the pest population has been recorded. Population reduction was assessed after 24, 72, and 120 hours.

[2] = system: Orchid Thrips (Dichromothrips corbetti); test: B.4 Orchid thrips floral-immersion test; settings: 96 h, in comparison with untreated controls, after 4 days
Experimental: B.4 Orchid Thrips (Dichromothrips Corbetti)
Dichromothrips corbetti adults used for bioassay are obtained from a colony maintained continuously under laboratory conditions. For testing purposes, the test compound is diluted to a concentration of 300 ppm (wt compound: vol diluent) in a 1:1 mixture of acetone:water (vol:vol), plus 0.01% vol/vol Kinetic® surfactant. Thrips potency of each compound is evaluated by using a floral-immersion technique. Plastic petri dishes are used as test arenas. All petals of individual, intact orchid flowers are dipped into treatment solution and allowed to dry. Treated flowers are placed into individual petri dishes along with 10-15 adult thrips. The petri dishes are then covered with lids. All test arenas are held under continuous light and a temperature of about 28° C. for duration of the assay. After 4 days, the numbers of live thrips are counted on each flower, and along inner walls of each petri dish. The level of thrips mortality is extrapolated from pre-treatment thrips numbers.

[3] = system: Silverleaf Whitefly (Bemisia argentifolii); test: B.5 Silverleaf whitefly test on sprayed cotton plants; settings: 72 h, in comparison with untreated controls, 3 days after treatment
Experimental: B.5 Silverleaf Whitefly (Bemisia argentifolii)
The active compounds were formulated in cyclohexanone as a 10,000 ppm solution supplied in 1.3 ml ABgene® tubes. These tubes were inserted into an automated electrostatic sprayer equipped with an atomizing nozzle and they served as stock solutions for which lower dilutions were made in 50% acetone:50% water (v/v). A nonionic surfactant (Kinetic®) was included in the solution at a volume of 0.01% (v/v). Cotton plants at the cotyledon stage (one plant per pot) were sprayed by an automated electrostatic plant sprayer equipped with an atomizing spray nozzle. The plants were dried in the sprayer fume hood and then removed from the sprayer. Each pot was placed into a plastic cup and 10 to 12 whitefly adults (approximately 3-5 days old) were introduced. The insects were collected using an aspirator and 0.6 cm, nontoxic Tygon® tubing (R-3603) connected to a barrier pipette tip. The tip, containing the collected insects, was then gently inserted into the soil containing the treated plant, allowing insects to crawl out of the tip to reach the foliage for feeding. Cups were covered with a reusable screened lid (150-micron mesh polyester screen PeCap from Tetko, Inc.). Test plants were maintained in a growth room at 25° C. and 20-40% relative humidity for 3 days, avoiding direct exposure to fluorescent light (24 hour photoperiod) to prevent trapping of heat inside the cup. Mortality was assessed 3 days after treatment, compared to untreated control plants.

[4] = system: Vetch Aphid (Megoura viciae); test: B.7 Vetch aphid test on broad bean leaf disks; settings: foliar, 120 h, in comparison with untreated controls, 5 days
Experimental: B.7 Vetch Aphid (Megoura viciae)
For evaluating control of vetch aphid (Megoura viciae) through contact or systemic means the test unit consisted of 24-well-microtiter plates containing broad bean leaf disks. The compounds were formulated using a solution containing 75% v/v water and 25% v/v DMSO. Different concentrations of formulated compounds were sprayed onto the leaf disks at 2.5 μl, using a custom built micro atomizer, at two replications. After application, the leaf disks were air-dried and 5-8 adult aphids placed on the leaf disks inside the microtiter plate wells. The aphids were then allowed to suck on the treated leaf disks and incubated at about 23±1° C. and about 50±5% relative humidity for 5 days. Aphid mortality and fecundity was then visually assessed.

[5] = system: Boll Weevil (Anthonomus grandis); test: B.9 Boll weevil microtiter diet test, egg and larval mortality; settings: 120 h, in comparison with untreated controls, egg and larval mortality after 5 days
Experimental: B.9 Boll Weevil (Anthonomus grandis)
For evaluating control of boll weevil (Anthonomus grandis) the test unit consisted of 24-well-microtiter plates containing an insect diet and 20-30 A. grandis eggs. The compounds were formulated using a solution containing 75% v/v water and 25% v/v DMSO. Different concentrations of formulated compounds were sprayed onto the insect diet at 20 μl, using a custom built micro atomizer, at two replications. After application, microtiter plates were incubated at about 23±1° C. and about 50±5% relative humidity for 5 days. Egg and larval mortality was then visually assessed.

[6] = system: Rice brown plant hopper (Nilaparvata lugens); test: B.11 Rice brown plant hopper test on sprayed rice seedlings; settings: in comparison with untreated controls, after 72 hours
Experimental: B.11 Rice brown plant hopper (Nilaparvata lugens)
Rice seedlings were cleaned and washed 24 hours before spraying. The active compounds were formulated in 50:50 acetone:water (vol:vol) and 0.1% vol/vol surfactant (EL 620) was added. Potted rice seedlings were sprayed with 5 ml test solution, air dried, placed in cages and inoculated with 10 adults. Treated rice plants were kept at about 28-29° C. and relative humidity of about 50-60%. Percent mortality was recorded after 72 hours.

[7] = system: Yellow Fever Mosquito (Aedes aegypti); test: whole plant or invertebrate; settings: 48 h, in comparison with untreated controls, larval mortality after 2 days
Experimental: B.12 Yellow Fever Mosquito (Aedes aegypti)
For evaluating control of yellow fever mosquito (Aedes aegypti) the test unit consisted of 96-well-microtiter plates containing 200 μl of tap water per well and 5-15 freshly hatched A. aegypti larvae. The compounds or mixtures were formulated using a solution containing 75% water and 25% DMSO. Different concentrations of formulated compounds or mixtures were sprayed onto the insect diet at 2.5 μl, using a custom built micro atomizer, at two replications. After application, microtiter plates were incubated at 28±1° C., 80±5% relative humidity for 2 days. Larval mortality was then visually assessed.

[8] = system: Green Soldier Stink Bug (Nezara viridula); test: B.15 Green soldier stink bug test on sprayed soybean pods; settings: 120 h, in comparison with untreated controls, after 5 days
Experimental: B.15 Green Soldier Stink Bug (Nezara viridula)
The active compound is dissolved at the desired concentration in a mixture of 1:1 (vol:vol) distilled water:aceteone. Surfactant (Kinetic HV) is added at a rate of 0.01% (vol/vol). The test solution is prepared at the day of use. Soybean pods were placed in microwavable plastic cups lined with moist filter paper and inoculated with ten 3rd instar N. viridula. Using a hand atomizer, an approximately 2 ml solution is sprayed into each cup. Treated cups were kept at about 28-29° C. and relative humidity of about 50-60%. Percent mortality was recorded after 5 days.

[9] = system: Red Spider Mite (Tetranychus kanzawai); test: B.10 Red spider mite test on sprayed cowpea beans; settings: in comparison with untreated controls, 72 hours after treatment
Experimental: B.10 Red Spider Mite (Tetranychus kanzawai)
The active compound is dissolved at the desired concentration in a mixture of 1:1 (vol:vol) distilled water:acetone. Add surfactant (Alkamuls® EL 620) at the rate of 0.1% (vol/vol). The test solution is prepared at the day of use. Potted cowpea beans of 7-10 days of age were cleaned with tap water and sprayed with 5 ml of the test solution using air driven hand atomizer. The treated plants were allowed to air dry and afterwards inculated with 20 or more mites by clipping a cassava leaf section with known mite population. Treated plants were placed inside a holding room at about 25-27° C. and about 50-60% relative humidity. Percent mortality was assessed 72 hours after treatment.

[10] = system: Mediterranean Fruitfly (Ceratitis capitata); test: B.2 Mediterranean fruitfly microtiter diet test, egg and larval mortality; settings: 120 h, in comparison with untreated controls, egg and larval mortality after 5 days
Experimental: B.2 Mediterranean Fruitfly (Ceratitis capitata)
For evaluating control of Mediterranean fruitfly (Ceratitis capitata) the test unit consisted of microtiter plates containing an insect diet and 50-80 C. capitata eggs. The compounds were formulated using a solution containing 75% v/v water and 25% v/v DMSO. Different concentrations of formulated compounds were sprayed onto the insect diet at 5 μl, using a custom built micro atomizer, at two replications. After application, microtiter plates were incubated at about 28±1° C. and about 80±5% relative humidity for 5 days. Egg and larval mortality was then visually assessed.

[11] = system: Southern Armyworm (Spodoptera eridania); test: B.6 Southern armyworm test on sprayed lima bean plants; settings: 96 h, in comparison with untreated controls, 4 days after treatment
Experimental: B.6 Southern Armyworm (Spodoptera eridania)
The active compounds were formulated in cyclohexanone as a 10,000 ppm solution supplied in 1.3 ml ABgene® tubes. These tubes were inserted into an automated electrostatic sprayer equipped with an atomizing nozzle and they served as stock solutions for which lower dilutions were made in 50% acetone:50% water (v/v). A nonionic surfactant (Kinetic®) was included in the solution at a volume of 0.01% (v/v). Lima bean plants (variety Sieva) were grown 2 plants to a pot and selected for treatment at the 1st true leaf stage. Test solutions were sprayed onto the foliage by an automated electrostatic plant sprayer equipped with an atomizing spray nozzle. The plants were dried in the sprayer fume hood and then removed from the sprayer. Each pot was placed into perforated plastic bags with a zip closure. Ten to 11 armyworm larvae were placed into the bag and the bags zipped closed. Test plants were maintained in a growth room at 25° C. and 20-40% relative humidity for 4 days, avoiding direct exposure to fluorescent light (24 hour photoperiod) to prevent trapping of heat inside the bags. Mortality and reduced feeding were assessed 4 days after treatment, compared to untreated control plants.

[12] = system: Green Peach Aphid (Myzus persicae); test: B.3 Green peach aphid systemic test, artificial diet under membrane; settings: 72 h, concentration of the test solution 2500 mg/L, 3 days
Text: B.3 Green Peach Aphid (Myzus persicae)
For evaluating control of green peach aphid (Myzus persicae) through systemic means the test unit consisted of 96-well-microtiter plates containing liquid artificial diet under an artificial membrane. The compounds were formulated using a solution containing 75% v/v water and 25% v/v DMSO. Different concentrations of formulated compounds were pipetted into the aphid diet, using a custom built pipetter, at two replications. After application, 5-8 adult aphids were placed on the artificial membrane inside the microtiter plate wells. The aphids were then allowed to suck on the treated aphid diet and incubated at about 23±1° C. and about 50±5% relative humidity for 3 days. Aphid mortality and fecundity was then visually assessed.

N#CC(C#N)(Cc1cnc(C(F)(F)F)nc1)c1cccc(F)c1 [II-21]
≥ 75%: mortality at 500 ppm [1] | mortality at 500 ppm [2] | mortality at 500 ppm [3] | mortality at 2500 ppm [4] | mortality at 2500 ppm [5] | mortality at 300 ppm [6] | mortality at 2500 ppm [7] | mortality at 500 ppm [8]

C#Cc1ccc(C(C#N)(C#N)Cc2ccc(C(F)(F)F)cn2)cc1 [II-33]
≥ 75%: mortality at 500 ppm [2] | mortality at 500 ppm [9]

N#CC(C#N)(Cc1ccc(C(F)(F)F)nc1)c1cccc(F)c1 [II-19]
≥ 75%: mortality at 500 ppm [1] | mortality at 2500 ppm [10] | mortality at 500 ppm [2] | mortality at 500 ppm [3] | mortality at 300 ppm [11] | mortality at 2500 ppm [4] | mortality at 2500 ppm [5] | mortality at 2500 ppm [7] | mortality at 500 ppm [8]

N#CC(C#N)(Cc1ccc(C(F)(F)F)cn1)c1ccccc1 [II-4]
≥ 75%: mortality at 500 ppm [1] | mortality at 2500 µg/mL [12] | mortality at 500 ppm [2] | mortality at 500 ppm [3] | mortality at 2500 ppm [4] | mortality at 2500 ppm [5] | mortality at 300 ppm [6] | mortality at 2500 ppm [7] | mortality at 500 ppm [8]

N#CC(C#N)(Cc1ncc(C(F)(F)F)cn1)c1ccc(F)cc1 [II-17]
≥ 75%: mortality at 500 ppm [1] | mortality at 500 ppm [2] | mortality at 500 ppm [3] | mortality at 500 ppm [11] | mortality at 2500 ppm [4] | mortality at 2500 ppm [5] | mortality at 2500 ppm [7]

N#CC(C#N)(Cc1ccc(C(F)(F)F)cn1)c1cc(F)c(F)c(F)c1 [II-48]
≥ 75%: mortality at 2500 ppm [10] | mortality at 2500 µg/mL [12] | mortality at 500 ppm [2] | mortality at 2500 ppm [4] | mortality at 2500 ppm [5] | mortality at 300 ppm [6] | mortality at 2500 ppm [7] | mortality at 500 ppm [8]

CC(c1ccc(C(F)(F)F)cn1)C(C#N)(C#N)c1cc(F)c(F)c(F)c1 (centres unmarked) [II-61]
≥ 75%: mortality at 500 ppm [1] | mortality at 2500 ppm [10] | mortality at 2500 µg/mL [12] | mortality at 500 ppm [2] | mortality at 2500 ppm [4] | mortality at 2500 ppm [5] | mortality at 300 ppm [6] | mortality at 2500 ppm [7] | mortality at 500 ppm [8]

N#CC(C#N)(Cc1ccc(C(F)(F)F)cn1)c1cc(F)cc(F)c1 [II-38]
≥ 75%: mortality at 500 ppm [1] | mortality at 2500 µg/mL [12] | mortality at 500 ppm [2] | mortality at 500 ppm [3] | mortality at 300 ppm [11] | mortality at 2500 ppm [4] | mortality at 2500 ppm [5] | mortality at 300 ppm [6] | mortality at 2500 ppm [7]

N#CC(C#N)(Cc1ccc(C(F)(F)F)nn1)c1ccc(F)cc1 [II-14]
≥ 75%: mortality at 500 ppm [1] | mortality at 2500 µg/mL [12] | mortality at 500 ppm [11] | mortality at 2500 ppm [5]
